Laboratory results from patent US7678788B2, “Diazabicyclic aryl derivatives” (Neurosearch A/S, priority 2003, dated 2010).

target: T1, α7-subtype of nicotinic receptors (Rattus norvegicus, UniProt Q05941); assay: In vitro inhibition of 3H-α-bungarotoxine binding in rat brain; details: rat cerebral cortex homogenate; 3H-α-bungarotoxine 2 nM; 2 hours at 37° C.
T1 construct: Cerebral cortices from male Wistar rats (150-250 g) are homogenised; from tissue; host or cells: rat cerebral cortex membrane homogenate
T1 sequence (Q05941 23-502): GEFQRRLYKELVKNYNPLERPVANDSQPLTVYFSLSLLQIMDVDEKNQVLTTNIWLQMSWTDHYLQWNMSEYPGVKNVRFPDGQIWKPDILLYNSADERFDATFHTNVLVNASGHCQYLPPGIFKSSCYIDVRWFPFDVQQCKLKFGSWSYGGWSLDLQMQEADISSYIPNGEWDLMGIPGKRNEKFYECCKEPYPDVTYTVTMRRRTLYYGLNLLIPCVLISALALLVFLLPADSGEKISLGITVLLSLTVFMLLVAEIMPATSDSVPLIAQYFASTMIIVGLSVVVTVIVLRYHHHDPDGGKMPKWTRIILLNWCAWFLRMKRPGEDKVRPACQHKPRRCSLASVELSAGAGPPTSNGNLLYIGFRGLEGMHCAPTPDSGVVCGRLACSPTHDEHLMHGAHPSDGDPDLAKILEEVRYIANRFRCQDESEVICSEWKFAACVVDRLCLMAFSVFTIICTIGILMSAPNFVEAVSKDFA

Compound	IC50 [µM]
O=C(c1ccco1)N1CCN2CCC1CC2 [Compound A1, (1,4-Diaza-bicyclo[3.2.2]-non-4-yl)-furan-2-yl-methanone]	0.54
O=C(c1ccc(-c2cccc(C(F)(F)F)c2)o1)N1CCN2CCC1CC2 [Compound A5, (1,4-Diaza-bicyclo[3.2.2]-non-4-yl)-5-(3-trifluoromethylphenyl)-furan-2-yl-methanone]	0.051
O=CNc1ccc(-c2ccc(C(=O)N3CCN4CCC3CC4)o2)cc1 [Compound F1, (1,4-Diaza-bicyclo[3.2.2]-non-4-yl)-5-(4-formylaminophenyl)-furan-2-yl-methanone]	0.017
Nc1cccc(-c2ccc(C(=O)N3CCN4CCC3CC4)o2)c1 [Compound C3, (1,4-Diaza-bicyclo[3.2.2]-non-4-yl)-5-(3-aminophenyl)-furan-2-yl-methanone]	0.08
